Square brackets hold non-standard residues; d marks the D form. Ends that are not written are not given here. Peptide text beside a SMILES is read from it. Phe(4-NO2) = N[C@@H](Cc1ccc([N+](=O)[O-])cc1)C(=O)O; Bta = N[C@@H](Cc1csc2ccccc12)C(=O)O; Phg = N[C@H](C(=O)O)c1ccccc1; Nle = CCCC[C@H](N)C(=O)O; Nva = CCC[C@H](N)C(=O)O
Columns and labels:
[1] = tested on: T cell lines against a natural (non-mutated) epitope (SSX-241-49); experiment: Cross-reactivity and functional avidity: IFN-gamma from T cell lines against natural SSX-2 41-49 epitope; type: cell-based, HHD transgenic mice; conditions: for Cross-reactivity and fct avidity (native to analogs)*: IFN-gamma from T cell line raised against native SSX-2 41-49, native = 1, lower = more active;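 as to all read-outs here: peptide analogs tested ex vivo with competent APCs, IFN-gamma in supernatant measured by ELISA, readouts include minimal triggering concentration, peak effect and concentration at peak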
[2] = biological target: HLA-A*0201 (Homo sapiens, UniProt P04439, D140Y/D185E/D98H/E176V/E277Q/G131W/G231S/I119V/I121R/I166T/I218V/L300P/L318F/N151K/N90K/P208A/P217A/Q86G/Q94H/R138H/R169H/T345S); experiment: Peptide binding using T2 cells (SSX-2 41-49 analogs); conditions: for Relative affinity (1/RA): half maximal binding of wild-type peptide relative to analog, native = 1.0
From the text: Thus, at limiting concentrations of peptide, it is a measurement of Kon mostly and at saturation levels of peptide it is a measurement of both Kon and Koff.

[3] = tested on: T cells that recognized native PSMA288-297 peptide; experiment: Peptide immunization with PSMA analogs, IFN-gamma ELISPOT against native peptide; type: in vivo, HHD transgenic mice; conditions: peptide + pI:C intranodal immunization
Protocol: Groups of HHD transgenic mice (n=8) were immunized with peptide (natural epitope PSMA288-297, or analogs bearing substitutions at primary or secondary anchor residues) by direct inoculation into the inguinal lymph nodes, with 25 μg in 25 μl of PBS+12.5 μg of pI:C to each lymph node at day 0, 3, 14 and 17.
Mice were sacrificed at 10 days after the last boost, and splenocytes prepared and assessed for IFN-γ production by ELISPOT analysis. […] At 48 hours after incubation, the assay was developed and the frequency of cytokine-producing T cells that recognized native PSMA288-297 peptide was automatically counted. The data is represented in FIG. 22 as the number of spot forming colonies/well (mean of triplicates±SD). […] To the extent that the poor immunogenicity of the native epitope reflects tolerance, the improved activity of these analogs represents tolerance breaking.

[4] = tested on: PRAME+ A2+ 624.38 melanoma cells; experiment: PRAME immunization, ex vivo cytotoxicity against human tumor cells; type: in vivo, HHD transgenic mice; conditions: mouse, in vivo
Protocol: This was followed by two peptide boosts (2.5 μg) at day 28 and 31, with the analog L426Nva L433Nle.

Relative affinity (1/RA) [2]	Compound	Cross-reactivity and fct avidity (native to analogs)* [1]	further results
0.6	CC[C@H](C)[C@H](NC(=O)[C@H](CCCCN)NC(=O)[C@H](CCC(=O)O)NC(=O)[C@H](CO)NC(=O)[C@H](C)NC(=O)[C@@H](N)Cc1csc2ccccc12)C(=O)N[C@@H](Cc1ccccc1)C(=O)N[C@@H](Cc1ccc(O)cc1)C(=O)N[C@H](C(=O)O)C(C)C [SSX2 41-49 (K41(b-(3-benzothienyl)Ala))] (H-[Bta]ASEKIFYV-OH)	10	
3.9	CCC[C@H](NC(=O)[C@H](CO)NC(=O)[C@@H](NC(=O)[C@@H](N)Cc1ccccc1)C(C)C)C(=O)N[C@@H](CCCCN)C(=O)N[C@H](C(=O)N[C@@H](Cc1ccccc1)C(=O)N[C@@H](Cc1ccc(O)cc1)C(=O)N[C@H](C(=O)O)C(C)C)[C@@H](C)CC [SSX2 41-49 (K41F, A42V, E44Nva), FVS(Nva)KIFYV] (H-FVS[Nva]KIFYV-OH)	3	
2.4	CCC[C@H](NC(=O)[C@H](CCCCN)NC(=O)[C@H](CCC(=O)O)NC(=O)[C@H](CO)NC(=O)[C@@H](NC(=O)[C@@H](N)Cc1ccccc1)C(C)C)C(=O)N[C@@H](Cc1ccccc1)C(=O)N[C@@H](Cc1ccc(O)cc1)C(=O)N[C@H](C(=O)O)C(C)C [SSX2 41-49 (K41F, A42V, I46Nva), FVSEK(Nva)FYV] (H-FVSEK[Nva]FYV-OH)	1	
1.0	CC[C@H](C)[C@H](NC(=O)[C@H](CCCCN)NC(=O)[C@H](CCC(=O)O)NC(=O)[C@H](CO)NC(=O)[C@@H](NC(=O)[C@@H](N)Cc1ccc(O)cc1)C(C)C)C(=O)N[C@@H](Cc1ccccc1)C(=O)N[C@@H](Cc1ccc(O)cc1)C(=O)N[C@H](C(=O)O)C(C)C [SSX2 41-49 (K41Y, A42V)]	0.1	
0.8	FVSEKIFYM [SSX2 41-49 (K41F, A42V, V49M)]	>10	
2.4	FVSEKLFSA	>10	
1.9	FVSEKLFYV [SSX2 41-49 (K41F, A42V, I46L)]	3	
1.0	KASEKIFYI [SSX2 41-49 (V49I)]	10	
1.7	KMSEKIFYV [SSX2 41-49 (A42M)]	0.1	
2.9	WMSEKIFYV [SSX2 41-49 (K41W, A42M)]	1	
3.0	WVSEKIFYV [SSX2 41-49 (K41W, A42V)]	1	

The remaining lines, values behind:

Compound	Relative affinity (1/RA) [2]	Cross-reactivity and fct avidity (native to analogs)* [1]	further results
CC[C@H](C)[C@H](NC(=O)[C@H](CCCCN)NC(=O)[C@H](CCC(=O)O)NC(=O)[C@H](CO)NC(=O)[C@H](C)NC(=O)[C@@H](N)Cc1ccc(OC)cc1)C(=O)N[C@@H](Cc1ccccc1)C(=O)N[C@@H](Cc1ccc(O)cc1)C(=O)N[C@H](C(=O)O)C(C)C [SSX2 41-49 (K41(O-methyl Tyr))] (H-Y(Me)ASEKIFYV-OH)	0.8	3	
CC[C@H](C)[C@H](NC(=O)[C@H](CCCCN)NC(=O)[C@H](CCC(=O)O)NC(=O)[C@H](CO)NC(=O)[C@H](C)NC(=O)[C@@H](N)Cc1ccc([N+](=O)[O-])cc1)C(=O)N[C@@H](Cc1ccccc1)C(=O)N[C@@H](Cc1ccc(O)cc1)C(=O)N[C@H](C(=O)O)C(C)C [SSX2 41-49 (K41(Phe-4N02))] (H-[Phe(4-NO2)]ASEKIFYV-OH)	1.1	3	cross-reactivity / IFN-gamma inducing activity relative to wild-type, in words ([1]; SSX-2 41-49 analogs, wild-type specific T cells): much lower concentration; binding affinity (and stability) with HLA-A*0201 relative to wild-type, in words ([2]; SSX-2 41-49 analogs): about the same as that of wild-type peptide
CC[C@H](C)[C@H](NC(=O)[C@H](CCCCN)NC(=O)[C@H](CCC(=O)O)NC(=O)[C@H](CO)NC(=O)[C@H](C)NC(=O)[C@@H](N)c1ccccc1)C(=O)N[C@@H](Cc1ccccc1)C(=O)N[C@@H](Cc1ccc(O)cc1)C(=O)N[C@H](C(=O)O)C(C)C [SSX2 41-49 (K41(Phg))] (H-[Phg]ASEKIFYV-OH)	2.5	0.1	
CCCC[C@H](NC(=O)[C@H](CO)NC(=O)[C@@H](NC(=O)[C@@H](N)Cc1ccccc1)C(C)C)C(=O)N[C@@H](CCCCN)C(=O)N[C@H](C(=O)N[C@@H](Cc1ccccc1)C(=O)N[C@@H](Cc1ccc(O)cc1)C(=O)N[C@H](C(=O)O)C(C)C)[C@@H](C)CC [SSX2 41-49 (K41F, A42V, E44Nle), FVS(Nle)KIFYV] (H-FVS[Nle]KIFYV-OH)	1.1	10	
CCCC[C@H](NC(=O)[C@H](CCCCN)NC(=O)[C@H](CCC(=O)O)NC(=O)[C@H](CO)NC(=O)[C@@H](NC(=O)[C@@H](N)Cc1ccccc1)C(C)C)C(=O)N[C@@H](Cc1ccccc1)C(=O)N[C@@H](Cc1ccc(O)cc1)C(=O)N[C@H](C(=O)O)C(C)C [SSX2 41-49 (K41F, A42V, I46Nle), FVSEK(Nle)FYV] (H-FVSEK[Nle]FYV-OH)	1.1	10	
CC[C@H](C)[C@H](NC(=O)[C@H](CCCCN)NC(=O)[C@H](CCC(=O)O)NC(=O)[C@H](CO)NC(=O)[C@@H](NC(=O)[C@@H](N)Cc1ccccc1)C(C)C)C(=O)N[C@@H](Cc1ccccc1)C(=O)N[C@@H](Cc1ccccc1)C(=O)N[C@H](C(=O)O)C(C)C [SSX2 41-49 (K41F, A42V, Y48F)]	1.7	10	
CC[C@H](C)[C@H](NC(=O)[C@H](CCCCN)NC(=O)[C@H](CCC(=O)O)NC(=O)[C@H](CO)NC(=O)[C@@H](NC(=O)[C@@H](N)Cc1ccccc1)C(C)C)C(=O)N[C@@H](Cc1ccccc1)C(=O)N[C@H](C(=O)N[C@H](C(=O)O)C(C)C)c1ccccc1 [SSX2 41-49 (K41F, A42V, Y48Phg), FVSEKIF(Phg)V] (H-FVSEKIF[Phg]V-OH)	2.5	>10	
FISEKIFYV [SSX2 41-49 (K41F, A42I)]	2.7	0.3	
FVSDKIFYV [SSX2 41-49 (K41F, A42V, E44D)]	1.1	>10	
FVSEKIFSV [SSX2 41-49 (K41F, A42V, Y48S)]	3.9	>10	
FVSEKIFTV [SSX2 41-49 (K41F, A42V, Y48T)]	3.8	>10	
FVSEKIFYV [SSX2 41-49 (K41F, A42V)]	3.1	0.1	
FVSEKLFTV [SSX2 41-49 (K41F, A42V, I46L, Y48T)]	2.6	>10	
FVSQKIFYV [SSX2 41-49 (K41F, A42V, E44Q)]	0.4	10	
GLWSIPVHPI [Peptide P290W]			IFN-γ ELISPOT response against native epitope, in words [3]: increased priming of immune responses against the native epitope
I297Nva: PSMA288-297 analog with Nva for Ile at position 297 [Peptide I297Nva]			IFN-γ ELISPOT response against native epitope, in words [3]: slightly higher (but significant) activity than the native peptide
KISEKIFYV [SSX2 41-49 (A42I)]	1.7	3	
KLSEKIFYI [SSX2 41-49 (A42L, V49I)]	2.6	0.03	
SLLQHLIGL [PRAME 425-433, reference compound]			ex vivo cytotoxicity against A2+ PRAME+ 624.38 cells, in words [4]: able to lyse human tumor cells
WLSEKIFYV [SSX2 41-49 (K41W, A42L)]	3.3	0.3	
YLSEKIFYV [SSX2 41-49 (K41Y, A42L)]	1.2		
YMSEKIFYV [SSX2 41-49 (K41Y, A42M)]	0.6	3	
{Abu}LPSIPVHPI [Peptide G288Abu]			IFN-γ ELISPOT response against native epitope, in words [3]: slightly higher (but significant) activity than the native peptide
